# Experimental data as given in patent publication US20100120690A1, “Polypeptides Having Antimicrobial Activity and Polynucleotides Encoding Same” (Novozymes Adenium Biotech A/S, priority 2005, published 2010).
# Test system: Staphylococcus carnosus ATCC51365
# Test: Yeast screening assay: radial diffusion assay of yeast supernatants
# Format: cell-based
# Set-up: key: An activity of 3 is better than Plectasin; An activity of 2 corresponds to the activity of Plectasin; 1 is worse than Plectasin
# Settings: yeast supernatant, clearing zone in radial diffusion assay
# Description: A range of antimicrobial polypeptides, which are variants of SEQ ID NO: 1 (Plectasin), were tested for antimicrobial activity by expressing them in S. cerevisae and screening the supernatant of the yeast transformants for antimicrobial activity against Staphylococcus carnosus ATCC51365.
# Radial Diffusion Assay was carried out as described in Methods in Molecular Biology, Vol. 78, Antibacterial peptide protocol, William M. Shafer, Human Press.
# 200-300 yeast transformant colonies were plated on 14 cm round plates containing 25 mL SC growth medium supplemented with 1.5% galactose, 0.5% glucose and 1.5% agarose. Plates were incubated for three hours at room temperature, overlaid with 25 mL of the same growth medium and allowed to grow for three days at 30° C. Then the plates were overlaid with 25 mL of LB growth medium containing 1.5% agarose and 10^5 cells of the indicator strain Staphylococcus carnosus and incubated at 30° C. overnight to allow growth of the bacterial cells. Next day, the plates were stained with 1.5 mM MTT to facilitate visualization of the clearing zones.
# Yeast colonies creating clearing zones were transferred to microtiter plates containing 200 micro-L of SC growth medium supplemented with 2% glucose and ampicillin (100 mg/L). Such plates designated “master plates” were incubated for 2 days at 30° C. with shaking at 450 rpm to allow yeast growth.
# 10 micro-L SC growth medium from each well of the master plates were transferred to new microtiter plates containing 200 micro-L SC growth medium with 1.5% galactose and 0.5% glucose. These plates were called daughter plates and were incubated for 3 days at 30° C. under 450 rpm shaking to allow yeast growth and peptide synthesis.
# Finally a Radial Diffusion Assay (RDA) was performed following the protocol described in Methods in Molecular Biology to analyse and quantify the antimicrobial activity of the yeast supernatants against S. carnosus.
# Briefly, 30 mL of minimal underlay medium containing 1% agarose and 5×10^5 cfu/mL of S. carnosus was poured in an omnitray plate (Nunc, 242811). A Nunc TSP plate (#445497) was inserted immediately on the plate to allow a 96 well pattern formation. Once the media had solidified, the TSP plate was removed and 10 micro-L of yeast supernatant samples were applied on the holes. Plates were incubated 3 hours at 37° C. and overlaid with 15 mL of LB agar growth medium. Finally, plates were incubated overnight at 37° C. and coloured with 1.5 mM MTT to visualize the clearing zones.
# Inspection and measurements of the clearing zones was performed on the plates. The corresponding yeast clones resulting in clearing zones of similar or increased size than the clones encoding for wild type plectasin were picked from the master plates and transferred to agar plates containing SC growth medium with 2% glucose and ampicillin (100 mg/L). Such plates were incubated for further 2 days at 30° C. to allow yeast growth. Subsequently, colony PCR was performed followed by sequence analysis to identify amino acid changes in the plectasin sequence.
# An activity of 2 corresponds to the activity of Plectasin. An activity of 3 is better than Plectasin, and 1 is worse than Plectasin.
row,Sequence,Activity (antimicrobial activity relative to the activity of plectasin)
1,GFGCNGPWREDDMQCHNHCKSIKGYKGGYCAKGGFVCKCY [Mutation D9R],2
2,GFGCNGPWDEDDMPCHNHCKSIKGYKGGYCAKGGFVCKCY [Mutation Q14P],2
3,GFGCNGPWDEPDMQCHNHCKSIKGYKGGYCAKGGFVCKCY [Mutation D11P],3
4,GFGCNGPWDEDDMQCHNHCKSIKGYKGGYCATGGFVCKCY [Mutation K32T],2
5,GFGCLGPWDEDDMQCHNHCKSIKGYKGGYCAKGGFVCKCY [Mutation N5L],2
6,GFGCNGPWDEDDMICHNHCKSIKGYKGGYCAKGGFVCKCY [Mutation Q14I],2
7,GFGCNGPWDEDDMQCHNHCKSWKGYKGGYCAKGGFVCKCY [Mutation I22W],2
8,GFGCNGPWDEWDMQCHNHCKSIKGYKGGYCAKGGFVCKCY [Mutation D11W],3
9,GFGCNGPWDEDDGQCHNHCKSIKGYKGGYCAKGGFVCKCY [Mutation M13G],2
10,GFGCNGPWDEDDRQCHNHCKSIKGYKGGFCAKGGFVCKCY [M13R + Y29F],2
11,GIGCNGPWDEDDMQCHNHCKSIKGYKGGYCAKGGFVCKCY [Mutation F2I],2
12,GFGCNGPWDEDDMSCHNHCKSIKGYKGGYCAKGGFVCRCY [Q14S + K38R],2
13,GFGCNGPWDEDDMQCHNHCKSTKGYKGGYCAKGGFVCKCY [Mutation I22T],2
14,GFGCNGPWDEDDMCCHNHCKSIKGYKGGYCAKGGFVCKCY [Mutation Q14C],2
15,GFGCNGPWDEDDMQCHNHCKSMKGYKGGYCAKGGFVCKCY [Mutation I22M],2
16,GFGCNGPWDEDDMQCHNACKSIKGYKGGYCAKGGFVCKCY [Mutation H18A],2
17,GFGCNGPWDEDDMQCHNHCKSIKGYKGGYCAKGGLVCKCY [Mutation F35L],3
18,GFGCNGPWDEMDMQCHNHCKSIKGYKGGYCAKGGFVCKCY [Mutation D11M],3
19,GFGCNGPWDEFDMQCHNHCKSIKGYKGGYCAKGGFVCKCY [Mutation D11F],3
20,GFGCNGPWDEDDLQCHNHCKSIKGYKGGYCAKGGFVCKCY [Mutation M13L],2

row,Sequence,Activity (antimicrobial activity relative to the activity of plectasin)
1,GFGCNGPWDSDDMQCHNHCKSIKGYKGGYCAKGGFVCKCY [Mutation E10S],3
2,GFGCNGPWDEDDMQCHNHCKSIKGYKGGSCAKGGFVCKCY [Mutation Y29S],2
3,GFGCNGPWNEDDMQCHNHCKSIKGYKGGYCAKGGFVCKCY [Mutation D9N],3
4,GFGCNRPWDEDDMQCHNHCKSIKGYKGGYCAKGGFVCKCY [Mutation G6R],2
5,GFGCNGPWLEDDMQCHNHCKSIKGYKGGYCAKGGFVCKCY [Mutation D9L],3
6,GFGCNGPWIEDDMQCHNHCKSIKGYKGGYCAKGGFVCKCY [Mutation D9I],2
7,GFGCNGKWDEDDMQCHNHCKSIKGYKGGYCAKGGFVCKCY [Mutation P7K],3
8,GFGCNGPWPEDDMQCHNHCKSIKGYKGGYCAKGGFVCKCY [Mutation D9P],3
9,GFGCNGPWDEDDMQCHNHCKSIKGYKGGYCAKGWFVCKCY [Mutation G34W],2
10,GFGCNGPWDEDDMQCHNLCKSIKGYKGGYCAKGGFVCKCY [Mutation H18L],3
11,GFGCNGPWDEDDMWCHNHCKSIKGYKGGYCAKGGFVCKCY [Mutation Q14W],2
12,GFGCNGPWDGDDMQCHNHCKSIKGYKGGYCAKGGFVCKCY [Mutation E10G],3
13,GFGCNGPWDEDDMQCHNHCKSIKGYKGGYCAKGGVVCKCY [Mutation F35V],2
14,GFGCNGPWDEDDMQCHNHCKSIKPYKGGYCAKGGFVCKCY [Mutation G24P],2
15,GFGCNGPWDEDDMQCHNHCKSIKGYKGGYCARGGFVCKCY [Mutation K32R],2
16,GFGCNGPWDEDDMQCHNHCKSIKGYKGGYCAKGKFVCKCY [Mutation G34K],3
17,GFGCNGPWDELDIQCHNHCKSIKGYKGGYCAKGGFVCKCY [D11L + M13I],2
18,GFGCNGPWDEDDMQCHNHCKSIKGYKGGYCAKGGFVCNCY [Mutation K38N],2
19,GFGCNGPWDEDDMQCHNHCKSIKGLKGGYCAKGGFVCKCY [Mutation Y25L],2
20,GFGCNGPWDEDDMQCHNHCKSIKGYKGGYCAKGGHVCKCY [Mutation F35H],2

row,Sequence,Activity (antimicrobial activity relative to the activity of plectasin)
1,GFGCNGPWDEHDMQCHNHCKSIKGYKGGYCAKGGFVCKCY [Mutation D11H],3
2,GFGCNGPWDEDDMQCHNHCKSIKGYKGGYCEKGGFVCKCY [Mutation A31E],2
3,GFGCNGPWDEKDMQCHNHCKSIKGYKGGYCAKGGFVCKCY [Mutation D11K],3
4,GFGCNGPWDEDDMQCHNHCKSIKGYKGGYCAKGGAVCKCY [Mutation F35A],2
5,GFGCNGPWDEDDFQCHNHCKSIKGYKGGYCAKGGFVCKCY [Mutation M13F],2
6,GFGCNGPWDEDDMQCHNHCKSIKGYKGGWCAKGGFVCKCY [Mutation Y29W],3
7,GFGCNGPWDEDDMQCHNHCKSIKGYKGGYCAKEGFVCKCY [Mutation G33E],2
8,GFGCNGPWDEDDMQCHNHCKSIKGVKGGYCAKGGFVCKCY [Mutation Y25V],2
9,GFGCNGPWDEDDMQCHNHCQSIKGYKGGYCAKGGFVCKCY [Mutation K20Q],2
10,GFGCNGPWDEDDMQCHNHCKSIKQYKGGYCAKGGFVCKCY [Mutation G24Q],2
11,GFGCNGPWDEDDMQCHNHCKSIKGYKGGYCAKRGFVCKCY [Mutation G33R],3
12,GFGCNGPWDEDDMQCHNHCKSIKGYKGGYCAKGGFVCKCI [Mutation Y40I],2
13,GFGCNGPWDETDMQCHNHCKSIKGYKGGYCAKGGFVCKCY [Mutation D11T],3
14,GFGCNGPWYEDDMQCHNHCKSIKGYKGGYCAKGGFVCKCY [Mutation D9Y],3
15,GFGCNGPWDEDDMQCHNHCKSIKGYKGGYCRKGGFVCKCY [Mutation A31R],2
16,GFGCNGPWHEDDMQCHNHCKSIKGYKGGYCAKGGFVCKCY [Mutation D9H],3
17,GFGCNGPWDEDDMQCHNHCKSIKGMKGGYCAKGGFVCKCY [Mutation Y25M],2
18,GFGCNGPWDEDDMQCHNHCKSIKGHKGGYCAKGGFVCKCY [Mutation Y25H],2
19,GFGCNGPWDEDDMQCHNHCKSIKGYKGGYCAKGGFKCKCY [Mutation V36K],2
20,GFGCNGPWDEDDMQCHNHCKSIKFYKGGYCAKGGFVCKCY [Mutation G24F],2
